Experimental data published in patent US6890305B2, “Reagent and method for measuring lung function” (Cambridge Isotope Laboratories, priority 2002, dated 2005).

Assay: 13C-sodium bicarbonate breath test in one asthma patient, pre vs post inhaler medication
Assay type: in vivo, human
Details: breath test 45 minutes post medication vs pre-medication, advair and albuterol taken together, FIG. 4
Procedure: FIG. 3 exemplifies two such breath curves.
In this embodiment, the slope of the Δ ^13CO2 curve at time points t1 and t2 is calculated according to the following equation: slope={(Δ ^13CO2)2−(Δ ^13CO2)1}/(t2−t1)
As an example, the slope of the curve of FIG. 4 can be measured at the 10 minute time point and the 20 minute time point, to give a variable for determining lung function. […] It can be seen from FIG. 4 that the individual post-medication curve has a steeper slope for the 10 and 20 minute time point interval than prior to the medication, indicating an improved lung function. These specific time values are exemplary only and other time periods or half life of the disappearance curve can be used.
This example describes the monitoring of the reduction in airway resistance in one asthma patient following inhaler medication therapy—advair (fluticasone propionate 100 mcg and salmeterol 50 mcg inhalation powder) and albuterol (racemic (α^1-[(tert-butylamino)methyl]-4-hydroxy-m-xylene-α,α′-diol, commercially available as Ventolin®, Proventil®) a relatively selective beta2-adrenergic bronchodilator.
A breath test was performed at 7 am before the patient ingested any asthma medication. The medication was taken at 8:15 am.

CC(C)(C)NCC(O)c1ccc(O)c(CO)c1 (racemic) [albuterol]
AUC of expired Δ13CO2 breath curve (cumulative ‰×h), post vs pre medication: improvement | slope of Δ13CO2 breath curve between 10-20 minutes, post vs pre medication: possibly the slope (steepening)
